Like-named read-outs stand apart in the source and are kept apart here.
Key:
[1] = test system: primary human T-cells; assay: IL2 secretion measurements (24 h, CD3-stimulated T-cells, PBS counter screen); type: cell-based; conditions: for Emax IL2 (% activation): CD3 condition, normalised to DMSO (neutral) and 20 μM reference compound A1 = 100%; for EC50: CD3-stimulated primary human T-cells, IL2 secretion, fitted sigmoidal curve, read-out: Tcell IL2 CD3 EC50
Procedure, shortened: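 IL-2 secretion was measured by ProQuantum or ELISA after 24 h culture of expanded human T-cells with compound, on CD3-antibody-coated plates or PBS counter-screen plates. Dosing used 5–6 points from a 20 or 10 μM final top at 3.333-fold steps in 0.2% DMSO. EC50/Emax were scaled between DMSO and 20 μM reference A1.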

[2] = molecular target: T1, DGKα (hDGKalpha(1-735)-N-His) (Homo sapiens, UniProt P23743); assay: In vitro DGK inhibition assay, DGKalpha ADP Glo (in house); type: biochemical; conditions: 4 nM DGKα, 25 μM ATP, 125 uM DLG in liposomes, 1 hour reaction
T1 construct: hDGKalpha(1-735)-N-His; His (N); made in house; host or cells: Sf21 insect cells (baculovirus)
Procedure, shortened: (§1)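 ADP-Glo luminescence measured ADP formed over 1 h by Sf21-expressed full-length human enzymes: DGKα at 4 nM with 25 µM ATP, DGKζ at 2 nM with 50 µM ATP, both on 125 µM DLG in PS/PC liposomes. Dose–response used 11 threefold dilutions at 2% final DMSO.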

[3] = molecular target: T2, DGKζ (hDGKzeta(1-928)-N-His) (Homo sapiens, UniProt Q13574); assay: In vitro DGK inhibition assay, DGKzeta ADP Glo (in house); type: biochemical; conditions: 2 nM DGKζ, 50 μM ATP, 125 uM DLG in liposomes, 1 hour reaction
T2 construct: hDGKzeta(1-928)-N-His; His (N); made in house; host or cells: Sf21 insect cells (baculovirus)
Procedure, shortened: as §1

T1 sequence (P23743 whole entry): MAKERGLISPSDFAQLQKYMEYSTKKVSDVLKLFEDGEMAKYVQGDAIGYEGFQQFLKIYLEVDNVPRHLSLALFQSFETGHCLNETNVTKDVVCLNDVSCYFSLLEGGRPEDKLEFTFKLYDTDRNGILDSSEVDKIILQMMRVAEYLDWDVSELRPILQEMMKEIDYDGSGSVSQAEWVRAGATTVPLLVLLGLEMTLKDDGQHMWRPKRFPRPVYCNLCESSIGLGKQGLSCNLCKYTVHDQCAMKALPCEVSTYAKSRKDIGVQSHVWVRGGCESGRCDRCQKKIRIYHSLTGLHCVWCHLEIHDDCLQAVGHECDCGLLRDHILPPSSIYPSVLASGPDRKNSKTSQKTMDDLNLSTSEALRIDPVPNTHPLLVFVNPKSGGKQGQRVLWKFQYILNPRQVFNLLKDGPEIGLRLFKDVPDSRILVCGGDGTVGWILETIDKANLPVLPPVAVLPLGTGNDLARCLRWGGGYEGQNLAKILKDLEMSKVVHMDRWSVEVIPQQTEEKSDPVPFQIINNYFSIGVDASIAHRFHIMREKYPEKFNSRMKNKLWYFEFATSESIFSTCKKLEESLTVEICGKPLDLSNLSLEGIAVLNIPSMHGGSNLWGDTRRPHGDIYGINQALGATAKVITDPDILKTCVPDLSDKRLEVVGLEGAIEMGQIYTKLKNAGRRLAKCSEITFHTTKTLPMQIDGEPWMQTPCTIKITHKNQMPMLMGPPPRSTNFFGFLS
T2 sequence (Q13574 whole entry): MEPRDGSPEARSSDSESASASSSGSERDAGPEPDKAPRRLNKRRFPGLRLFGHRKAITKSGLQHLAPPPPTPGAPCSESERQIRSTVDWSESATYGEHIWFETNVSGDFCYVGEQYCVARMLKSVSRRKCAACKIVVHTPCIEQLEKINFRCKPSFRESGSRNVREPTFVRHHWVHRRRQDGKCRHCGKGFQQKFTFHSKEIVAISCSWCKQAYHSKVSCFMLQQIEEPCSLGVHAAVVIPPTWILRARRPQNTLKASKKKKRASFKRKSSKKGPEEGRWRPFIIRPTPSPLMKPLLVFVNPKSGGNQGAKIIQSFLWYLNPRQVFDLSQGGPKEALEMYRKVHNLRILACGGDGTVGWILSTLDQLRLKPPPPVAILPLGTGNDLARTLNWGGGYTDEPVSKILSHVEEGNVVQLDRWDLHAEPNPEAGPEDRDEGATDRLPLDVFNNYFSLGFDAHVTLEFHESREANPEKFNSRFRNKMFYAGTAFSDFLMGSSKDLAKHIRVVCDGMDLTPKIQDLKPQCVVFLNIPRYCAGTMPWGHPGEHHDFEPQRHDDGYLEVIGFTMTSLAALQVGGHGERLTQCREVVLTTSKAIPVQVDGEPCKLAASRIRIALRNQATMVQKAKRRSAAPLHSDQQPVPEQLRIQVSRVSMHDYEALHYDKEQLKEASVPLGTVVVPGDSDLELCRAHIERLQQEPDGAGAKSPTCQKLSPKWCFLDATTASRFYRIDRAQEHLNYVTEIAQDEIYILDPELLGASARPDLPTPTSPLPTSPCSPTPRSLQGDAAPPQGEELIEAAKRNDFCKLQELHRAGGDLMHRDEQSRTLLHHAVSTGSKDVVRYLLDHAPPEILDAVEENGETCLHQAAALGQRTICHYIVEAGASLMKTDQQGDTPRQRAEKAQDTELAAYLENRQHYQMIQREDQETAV

SMILES | Emax IL2 (% activation) [1] [% activation] | EC50 ([1]; Homo sapiens, T-cell) [nM] | IC50 [2] [nM] | IC50 [3] [nM] | EC50 [1] [nM]
CC(C)(C#N)c1nnc(-c2ccc3c(c2)N(Cc2ccc(-c4ccc(OC(F)(F)C(F)(F)F)cn4)cc2)C(=O)[C@@H](N)CS3(=O)=O)o1 [Example 129, 2-[5-[(3R)-3-amino-1,1,4-trioxo-5-[[4-[5-(1,1,2,2,2-pentafluoroethoxy)-2-pyridyl]phenyl]methyl]-2,3-dihydro-1λ^6,5-benzothiazepin-7-yl]-1,3,4-oxadiazol-2-yl]-2-methyl-propanenitrile] | 187 | 552 | 1680 | 948 | 
N[C@H]1CS(=O)(=O)c2ccc(-c3nnc(C4(C(F)F)CNC4)o3)cc2N(Cc2ccc(-c3ccc(C(F)(F)F)cc3)cc2)C1=O [Example 152] | 19 | > 10000 | > 60000 | 12200 | 
C[C@@](N)(c1nnc(-c2ccc3c(c2)N(Cc2ccc(-c4ccc(OC(F)(F)F)cn4)cc2)C(=O)[C@@H](N)CS3(=O)=O)o1)C(F)(F)F [Example 153, (3R)-3-amino-7-[5-[(1R)-1-amino-2,2,2-trifluoro-1-methyl-ethyl]-1,3,4-oxadiazol-2-yl]-1,1-dioxo-5-[[4-[5-(trifluoromethoxy)-2-pyridyl]phenyl]methyl]-2,3-dihydro-1λ^6,5-benzothiazepin-4-one] | 193 | 245 | 2050 | 2250 | 
C[C@@](N)(c1nnc(-c2ccc3c(c2)N(Cc2ccc(-c4ccc(C(F)(F)F)cn4)cc2)C(=O)[C@@H](N)CS3(=O)=O)o1)C(F)(F)F [Example 154, (3R)-3-amino-7-[5-[(1R)-1-amino-2,2,2-trifluoro-1-methyl-ethyl]-1,3,4-oxadiazol-2-yl]-1,1-dioxo-5-[[4-[5-(trifluoromethyl)-2-pyridyl]phenyl]methyl]-2,3-dihydro-1λ^6,5-benzothiazepin-4-one] | 127 | 991 | 23600 | 3100 | 
C[C@@](N)(c1nnc(-c2ccc3c(c2)N(Cc2ccc(-n4nnc(C(F)(F)F)n4)cc2)C(=O)[C@@H](N)CS3(=O)=O)o1)C(F)(F)F [Example 156, (3R)-3-amino-7-[5-[(1R)-1-amino-2,2,2-trifluoro-1-methyl-ethyl]-1,3,4-oxadiazol-2-yl]-1,1-dioxo-5-[[4-[5-(trifluoromethyl)tetrazo 1-2-yl]phenyl]methyl]-2,3-dihydro-1λ^6,5-benzothiazepin-4-one] | 554 | 2110 | 17800 | 2960 | 
COC(=O)N1CC2CC(c3nnc(-c4ccc5c(c4)N(Cc4ccc(-c6noc(C(F)(F)F)n6)cc4)C(=O)[C@@H](N)CS5(=O)=O)o3)(C2)C1 [Example 158, methyl 1-[5-[(3R)-3-amino-1,1,4-trioxo-5-[[4-[5-(trifluoromethyl)-1,2,4-oxadiazol-3-yl]phenyl]methyl]-2,3-dihydro-1λ^6,5-benzothiazepin-7-yl]-1,3,4-oxadiazol-2-yl]-3-azabicyclo[3.1.1]heptane-3-carboxylate] | 345 |  | > 60000 | 1130 | 1340
N[C@H]1CS(=O)(=O)c2ccc(-c3nnc(N4CCC(F)(F)CC4)o3)cc2N(Cc2ccc(-c3ccc(C(F)(F)F)cn3)cc2)C1=O [Example 160] | 55 | 6430 | 5180 | 922 | 
N[C@H]1CS(=O)(=O)c2ccc(-c3nnc(N4CCC(F)(F)CC4)o3)cc2N(Cc2ccc(-n3ccc(C(F)(F)F)n3)cc2)C1=O [Example 162, (3R)-3-amino-7-[5-(4,4-difluoro-1-piperidyl)-1,3,4-oxadiazol-2-yl]-1,1-dioxo-5-[[4-[3-(trifluoromethyl)pyrazol-1-yl]phenyl]methyl]-2,3-dihydro-1λ^6,5-benzothiazepin-4-one] | 185 | 1410 | > 62500 | 1100 | 
CC(C)(c1nnc(-c2ccc3c(c2)N(Cc2ccc(-c4ccc(OC(F)(F)F)cn4)cc2)C(=O)[C@@H](N)CS3(=O)=O)o1)C(F)(F)F [Example 165, (3R)-3-amino-1,1-dioxo-7-[5-(2,2,2-trifluoro-1,1-dimethyl-ethyl)-1,3,4-oxadiazol-2-yl]-5-[[4-[5-(trifluoromethoxy)-2-pyridyl]phenyl]methyl]-2,3-dihydro-1λ^6,5-benzothiazepin-4-one] | 123 | 1330 | 1140 | 2220 | 
N[C@H]1CS(=O)(=O)c2ccc(-c3nnc(C(F)C(F)(F)F)o3)cc2N(Cc2ccc(-c3noc(C4CC4)n3)cc2)C1=O (stereo partly drawn) [Example 168, (3R)-3-amino-5-[[4-(5-cyclopropyl-1,2,4-oxadiazol-3-yl)phenyl]methyl]-1,1-dioxo-7-[5-(1,2,2,2-tetrafluoroethyl)-1,3,4-oxadiazol-2-yl]-2,3-dihydro-1λ^6,5-benzothiazepin-4-one] | 67 | 4870 | > 62500 | 1600 | 
CC(O)(c1nnc(-c2ccc3c(c2)N(Cc2ccc(-c4noc(C5CC5)n4)cc2)C(=O)[C@@H](N)CS3(=O)=O)o1)C(F)(F)F (some centres unmarked) [Example 170] | 79 | 8550 | > 62500 | 2000 | 
N[C@H]1CS(=O)(=O)c2ccc(-c3nnc(C(N)(C4CC4)C(F)(F)F)o3)cc2N(Cc2ccc(-c3noc(C4CC4)n3)cc2)C1=O (some centres unmarked) [Example 171] | 122 | 3780 | > 60000 | 722 | 
N#CC1(c2nnc(-c3ccc4c(c3)N(Cc3ccc(-c5ccc(OC(F)(F)F)cn5)cc3)C(=O)[C@@H](N)CS4(=O)=O)o2)CCC1 [Example 172, 1-[5-[(3R)-3-amino-1,1,4-trioxo-5-[[4-[5-(trifluoromethoxy)-2-pyridyl]phenyl]methyl]-2,3-dihydro-1λ^6,5-benzothiazepin-7-yl]-1,3,4-oxadiazol-2-yl]cyclobutanecarbonitrile] | 120 | 1090 | 2520 | 732 | 
CC(C)(CC#N)c1nnc(-c2ccc3c(c2)N(Cc2ccc(-c4ccc(OC(F)(F)F)cn4)cc2)C(=O)[C@@H](N)CS3(=O)=O)o1 [Example 175, 3-[5-[(3R)-3-amino-1,1,4-trioxo-5-[[4-[5-(trifluoromethoxy)-2-pyridyl]phenyl]methyl]-2,3-dihydro-1λ^6,5-benzothiazepin-7-yl]-1,3,4-oxadiazol-2-yl]-3-methyl-butanenitrile] | 52 | > 10000 | 961 | 734 | 
